The test has as its system single cells. Briefly: chemosensitivity assay on single cells (live-cell imaging, FIG. 10). Type of test: cell-based. As to conditions: single cell imaged before, upon addition, and 2 minutes and 5 minutes after Y-27632 treatment. The source says:
FIG. 10 depicts a chemosensitivity assay conducted on single cells. Target cell subpopulations can be used for personalized medicine. In the instance of CTCs and CSCs, cells can be used for chemosensitivity testing on whereby standard and exploratory chemotherapy regimens can be tested on cultured CTCs and determination of the effects of chemotherapy drugs on CTCs, including cell viability and cell division rates measurement to determine the efficacy of a given drug. An example of how a chemosensitivity assay can be applied is depicted in FIG. 10. […] In this example, Rho Kinase inhibitor, Y-27632 was used (Ishizaki et al. 2000 Pharmacological Properties of Y-27632, a specific inhibitor of rho-associated kinases. Mol Pharmacol. 57(5):976-83). […] The plasma membrane of the cell retracts upon drug treatment after 2 minutes 1015 and 5 minutes 1020.

The structures appear in SMILES notation.

For the molecule `C[C@@H](N)[C@H]1CC[C@H](C(=O)Nc2ccncc2)CC1` [Y-27632], the “effect on cell adhesions and plasma membrane of a single cell upon drug treatment” value was “loss of adhesions and retraction of the plasma membrane”.

For the origin of these results see US20180267025A1, “CANCER ANALYSIS SYSTEM” (Xcell Biosciences, Inc., priority 2013, published 2018).
